From US7964624B1, “Inhibitors of serine proteases” (priority 2005, dated 2011)

Experiments:
HCV NS3 protease domain = target: T1, HCV NS3 protease domain (Hepatitis C virus genotype 1b, UniProt Q9WMX2); experiment: biochemical; settings: Enzyme Assay 1 (HCV NS3 Protease Domain Peptide Cleavage Assay) activity, apparent Ki class
T1 construct: The first 181 amino acids of NS3 (residues 1027-1207 of the viral polyprotein); hexa-histidine (C); made in house; host or cells: E. coli BL21/DE3 pLysS

[1] = target: T2, full-length hepatitis C viral protein NS3•4A (Hepatitis C virus genotype 1a, UniProt P27958); experiment: biochemical; parameters: species or system HCV sub-type strain 1a
T2 construct: hexa-histidine (N); made in house; host or cells: Sf9 insect cells (baculovirus, pVL1392)

[2] = Enzyme Assay 2 (HCV NS3 Peptide Cleavage Assay) activity, apparent Ki class
[3] = Enzyme Assay 2, HCV NS3 Peptide Cleavage Assay, apparent Ki

| Compound | Ki (HCV NS3 protease domain) [nM] | Ki [1, 2] [nM] | Ki [1, 3] [nM] |
| --- | --- | --- | --- |
| CCC[C@H](NC(=O)[C@@H]1C[C@]2(CC(c3ccc(C)c(Cl)c3)=NO2)CN1C(=O)[C@@H](NC(=O)CC1CCCCC1)C(C)(C)C)C(=O)C(=O)NC1CC1 [Compound 3] | 100 to 500 | < 100 |  |
| CC1(O)CCC(CC(=O)N[C@H](C(=O)N2C[C@@]3(CC(c4cccc(Cl)c4)=NO3)C[C@H]2C(=O)N[C@@H](CC2CC2)C(=O)C(N)=O)C(C)(C)C)CC1 (some centres unmarked) [Compound 5] | < 100 | < 100 |  |
| CCC[C@H](NC(=O)[C@@H]1C[C@]2(CC(c3cccc(Cl)c3)=NO2)CN1C(=O)[C@@H](NC(=O)CC1CCCCC1)C(C)(C)C)C(=O)C(=O)NC1Cc2ccccc2C1 [Compound 6] | > 500 | > 500 |  |
| CCC[C@H](NC(=O)[C@@H]1C[C@]2(CC(c3cccc(Cl)c3)=NO2)CN1C(=O)[C@@H](CC(=O)NCc1ccccc1)C(C)C)C(=O)C(=O)NC1CC1 [Compound 10] | > 500 | > 500 |  |
| CCC[C@H](NC(=O)[C@@H]1C[C@]2(CC(c3cccc(Cl)c3)=NO2)CN1C(=O)[C@@H](NC(C)=O)C(C)(C)C)C(=O)C(=O)NC1CC1 [Compound 12] | 100 to 500 | < 100 |  |
| CC(C)(C)[C@H](NC(=O)CC1CC2CCC1C2)C(=O)N1C[C@@]2(CC(c3cccc(Cl)c3)=NO2)C[C@H]1C(=O)N[C@@H](CC1CC1)C(=O)C(N)=O (some centres unmarked) [Compound 13] | < 100 | < 100 |  |
| CCC[C@H](NC(=O)[C@@H]1C[C@]2(CC(c3cccc(Cl)c3)=NO2)CN1C(=O)[C@@H](NC(=O)CC1CCCCC1)C(C)(C)C)C(=O)C(=O)NCc1nc2ccccc2s1 [Compound 17] | > 500 | 100 to 500 |  |
| CC(C)(C)[C@H](NC(=O)CC1CCCCC1)C(=O)N1C[C@@]2(CC(c3cc(Cl)c4c(c3)CCO4)=NO2)C[C@H]1C(=O)NC(CC1CCC1)C(=O)C(=O)NC1CC1 (some centres unmarked) [Compound 18] | < 100 | < 100 |  |
| CCC[C@H](NC(=O)[C@@H]1C[C@]2(CC(c3cccc(Cl)c3)=NO2)CN1C(=O)[C@@H](NC(=O)CC12CCCCC1C2)C(C)(C)C)C(=O)C(=O)NC1CC1 (some centres unmarked) [Compound 19] | 100 to 500 | < 100 |  |
| CCC[C@H](NC(=O)[C@@H]1C[C@]2(CC(c3cccc(Cl)c3)=NO2)CN1C(=O)[C@@H](CC(=O)NC1CCCCC1)C(C)C)C(=O)C(=O)NC1CC1 [Compound 21] | > 500 | > 500 |  |
| CC(C)(C)[C@H](NC(=O)CC1CCCCC1)C(=O)N1C[C@@]2(CC(c3cccc(Cl)c3)=NO2)C[C@H]1C(=O)N[C@@H](CC1CCC1)C(=O)C(=O)NC1CC1 [Compound 23] | < 100 | 100 to 500 |  |
| CCC[C@H](NC(=O)[C@@H]1C[C@]2(CC(c3cccc(Cl)c3)=NO2)CN1C(=O)[C@@H](NC(=O)[C@@H]1CCCN1C(=O)c1ccccc1)C(C)(C)C)C(=O)C(=O)NC1CC1 [Compound 26] | 100 to 500 | < 100 |  |
| CCC[C@H](NC(=O)[C@@H]1C[C@]2(CC(c3ccccc3C#N)=NO2)CN1C(=O)[C@@H](NC(=O)CC1CCCCC1)C(C)(C)C)C(=O)C(=O)NC1CC1 [Compound 28] | > 500 | 100 to 500 |  |
| CCC[C@H](NC(=O)[C@@H]1C[C@]2(CC(c3cccc(Cl)c3)=NO2)CN1C(=O)[C@@H](NC(=O)CC1(C)CCCCC1)C(C)(C)C)C(=O)C(=O)NC1CC1 [Compound 29] | 100 to 500 | 100 to 500 |  |
| CCC[C@H](NC(=O)[C@@H]1C[C@]2(CC(c3cccc(Cl)c3)=NO2)CN1C(=O)[C@@H](NC(=O)[C@@H]1CCC(=O)N1Cc1cccs1)C(C)(C)C)C(=O)C(=O)NC1CC1 [Compound 30] | 100 to 500 | < 100 |  |
| CCC[C@H](NC(=O)[C@@H]1C[C@]2(CC(c3cccc4cccnc34)=NO2)CN1C(=O)[C@@H](NC(=O)CC1CCCCC1)C(C)(C)C)C(=O)C(=O)NC1CC1 [Compound 42] | 100 to 500 | < 100 |  |
| C=C[C@@H]1C[C@]1(NC(=O)[C@@H]1C[C@]2(CC(c3cccc(Cl)c3)=NO2)CN1C(=O)[C@@H](NC(=O)OC1CCOC1)C(C)(C)C)C(=O)NS(=O)(=O)C1CC1 (some centres unmarked) [Compound 45] | > 500 | 100 to 500 |  |
| CCC[C@H](NC(=O)[C@@H]1C[C@]2(CC(c3cccc(Cl)c3)=NO2)CN1C(=O)c1cc2cc(Br)ccc2[nH]1)C(=O)C(=O)NC1CC1 [Compound 46] | > 500 | > 500 |  |
| CCC[C@H](NC(=O)[C@@H]1CC2(CC(c3cccc(Cl)c3)=NO2)CN1C(=O)[C@H](CCSCC)NC(C)=O)C(=O)C(=O)NC1CC1 (some centres unmarked) [Compound 54] | > 500 | 100 to 500 |  |
| CCC[C@H](NC(=O)[C@@H]1C[C@]2(CC(c3csc(Cl)c3)=NO2)CN1C(=O)[C@@H](NC(=O)CC1CCCCC1)C(C)(C)C)C(=O)C(=O)NC1CC1 [Compound 62] | 100 to 500 | 100 to 500 |  |
| CN(C)C(=O)C(=O)[C@H](CC1CCC1)NC(=O)[C@@H]1C[C@]2(CC(c3cccc(Cl)c3)=NO2)CN1C(=O)[C@@H](NC(=O)CC1CCCCC1)C(C)(C)C [Compound 63] | > 500 | > 500 |  |

| Compound | Ki (HCV NS3 protease domain) [nM] | Ki [1, 2] [nM] | Ki [1, 3] [nM] |
| --- | --- | --- | --- |
| CCC[C@H](NC(=O)[C@@H]1C[C@]2(CC(c3cccc(Cl)c3)=NO2)CN1C(=O)C1CCN(c2ccccc2)C1=O)C(=O)C(=O)NC1CC1 (some centres unmarked) [Compound 65] | > 500 | > 500 |  |
| CCOc1c(F)cc(C2=NO[C@]3(C2)C[C@@H](C(=O)N[C@@H](CC2CC2)C(=O)C(N)=O)N(C(=O)[C@@H](NC(=O)CC2CCOCC2)C(C)(C)C)C3)cc1Cl [Compound 67] | < 100 | < 100 |  |
| CCC[C@H](NC(=O)[C@@H]1C[C@]2(CC(c3cccc(Cl)c3)=NO2)CN1C(=O)[C@@H](NC(=O)CC1CCCCC1)C(C)(C)C)C(=O)C(=O)NCCc1c[nH]c2cc(OC)ccc12 [Compound 69] | > 500 | 100 to 500 |  |
| CCC[C@H](NC(=O)[C@@H]1C[C@]2(CC(c3cccc(Cl)c3)=NO2)CN1C(=O)[C@@H](NC(=O)CC1CCCCC1)C(C)(C)C)C(=O)C(=O)NCc1ccc(-n2cccn2)cc1 [Compound 73] | > 500 | 100 to 500 |  |
| CCC[C@H](NC(=O)[C@@H]1C[C@]2(CC(c3cc(Cl)c4c(c3)CCC(C)(C)O4)=NO2)CN1C(=O)[C@@H](NC(=O)CC1CCCCC1)C(C)(C)C)C(=O)C(=O)NC1CC1 [Compound 74] | 100 to 500 | < 100 |  |
| CCC[C@H](NC(=O)[C@@H]1C[C@]2(CC(c3cccc(Cl)c3)=NO2)CN1C(=O)[C@@H](NC(=O)CC1CCCCC1)C(C)(C)C)C(=O)C(=O)NCc1ccccc1 [Compound 77] | 100 to 500 | < 100 |  |
| CCC[C@H](NC(=O)[C@@H]1C[C@]2(CC(c3cccc(Cl)c3)=NO2)CN1C(=O)[C@@H](NC(=O)CC1CCCCC1)C(C)(C)C)C(=O)C(=O)N1CCC1 [Compound 79] | 100 to 500 | < 100 |  |
| CCC[C@H](NC(=O)[C@@H]1C[C@]2(CC(c3cccc(Cl)c3)=NO2)CN1C(=O)[C@@H](NC(=O)CC1CCCCC1)C(C)(C)C)C(=O)C(=O)Nc1cc(OC)ccc1OC [Compound 84] | > 500 | > 500 |  |
| CC(C)(C)[C@H](NC(=O)CC1CCOCC1)C(=O)N1C[C@@]2(CC(c3cccc(Cl)c3)=NO2)C[C@H]1C(=O)NC(CC1CCC1)C(=O)C(=O)NC1CC1 (some centres unmarked) [Compound 87] | 100 to 500 | 100 to 500 |  |
| CCC[C@H](NC(=O)[C@@H]1CC2(CC(c3cccc(Cl)c3)=NO2)CN1C(=O)[C@H](Cc1ccc(OC)cc1)NC(C)=O)C(=O)C(=O)NC1CC1 (some centres unmarked) [Compound 88] | > 500 | 100 to 500 |  |
| CCC[C@H](NC(=O)[C@@H]1C[C@]2(CC(c3cccc(Cl)c3)=NO2)CN1C(=O)[C@@H](NC(=O)CC1CCCCC1)C(C)(C)C)C(=O)C(=O)NCC1(c2ccc(OC)cc2)CCOCC1 [Compound 91] | > 500 | > 500 |  |
| CCC[C@H](NC(=O)[C@@H]1C[C@]2(CC(c3cc(C)c(OCC)c(C)c3)=NO2)CN1C(=O)[C@@H](NC(=O)[C@@H]1C[C@H]1C1CCCCC1)C(C)(C)C)C(=O)C(=O)NC1CC1 [Compound 984] |  |  | < 100 |
| CCOc1c(C)cc(C2=NO[C@]3(C2)C[C@@H](C(=O)N[C@@H](CC2CC2)C(=O)C(=O)NC)N(C(=O)[C@@H](NC(=O)[C@@H]2C[C@H]2c2ccccc2OC)C(C)(C)C)C3)cc1C [Compound 985] |  |  | < 100 |
| CCOc1c(C)cc(C2=NO[C@]3(C2)C[C@@H](C(=O)N[C@@H](CC2CC2)C(=O)C(=O)NC)N(C(=O)[C@@H](NC(=O)[C@H]2C[C@@H]2c2ccccn2)C(C)(C)C)C3)cc1C [Compound 986] |  |  | 100 to 500 |
| CCC[C@H](NC(=O)[C@@H]1C[C@]2(CC(c3cc(C)c(OCC)c(C)c3)=NO2)CN1C(=O)[C@@H](NC(=O)[C@@H]1C[C@H]1c1ccccc1OC)C(C)(C)C)C(=O)C(=O)NC [Compound 991] |  |  | < 100 |
| CCC[C@H](NC(=O)[C@@H]1C[C@]2(CC(c3cc(C)c(OCC)c(C)c3)=NO2)CN1C(=O)[C@@H](NC(=O)C1C[C@H]1C(C)C)C(C)(C)C)C(=O)C(=O)NC (some centres unmarked) [Compound 992] |  |  | < 100 |
| CCC[C@H](NC(=O)[C@@H]1C[C@]2(CC(c3cc(C)c(OCC)c(C)c3)=NO2)CN1C(=O)[C@@H](NC(=O)[C@@H]1C[C@H]1C1CCCCC1)C(C)(C)C)C(=O)C(=O)NC [Compound 993] |  |  | < 100 |
| CCC[C@H](NC(=O)[C@@H]1C[C@]2(CC(c3cc(C)c(OCC)c(C)c3)=NO2)CN1C(=O)[C@@H](NC(=O)[C@@H]1C[C@H]1c1ccc(F)cc1)C(C)(C)C)C(=O)C(=O)NC1CC1 [Compound 994] |  |  | < 100 |
| CCC[C@H](NC(=O)[C@@H]1C[C@]2(CC(c3cc(C)c(OCC)c(C)c3)=NO2)CN1C(=O)[C@@H](NC(=O)[C@@H]1C[C@H]1c1ccc(F)cc1)C(C)(C)C)C(=O)C(=O)NC [Compound 995] |  |  | < 100 |
| CCC[C@H](NC(=O)[C@@H]1C[C@]2(CC(c3cc(C)c(OCC)c(C)c3)=NO2)CN1C(=O)[C@@H](NC(=O)[C@H]1C[C@@H]1c1ccc(F)cc1)C(C)(C)C)C(=O)C(=O)NC1CC1 [Compound 996] |  |  | < 100 |
| CCC[C@H](NC(=O)[C@@H]1C[C@]2(CC(c3cc(C)c(OCC)c(C)c3)=NO2)CN1C(=O)[C@@H](NC(=O)[C@H]1C[C@@H]1c1ccc(F)cc1)C(C)(C)C)C(=O)C(=O)NC [Compound 997] |  |  | < 100 |
